Experiments:
blackgrass = experiment: Test B pre/postemergence blackgrass; assay type: in vivo, Alopecurus myosuroides
In short: (§1)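 Test chemicals in a non-phytotoxic solvent mixture with surfactant were sprayed preemergence onto planted seeds and postemergence onto plants 2 to 18 cm tall (1- to 4-leaf stage). After twelve to sixteen days in a greenhouse, injury was visually rated against untreated controls from 0 (no effect) to 10 (complete control).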

surinam grass = experiment: Test B pre/postemergence surinam grass; assay type: in vivo, Brachiaria decumbens
In short: as §1

cocklebur = experiment: Test B pre/postemergence cocklebur; assay type: in vivo, Xanthium strumarium
In short: as §1

corn = experiment: Test B pre/postemergence corn; assay type: in vivo, Zea mays
In short: as §1

crabgrass = experiment: Test B pre/postemergence crabgrass; assay type: in vivo, Digitaria sanguinalis
In short: as §1

giant foxtail = experiment: Test B pre/postemergence giant foxtail; assay type: in vivo, Setaria faberii
In short: as §1

morningglory = experiment: Test B pre/postemergence morningglory; assay type: in vivo, Ipomoea hederacea
In short: as §1

pigweed = experiment: Test B pre/postemergence pigweed; assay type: in vivo, Amaranthus retroflexus
In short: as §1

rape = experiment: Test B pre/postemergence rape; assay type: in vivo, Brassica napus
In short: as §1

soybean = experiment: Test B pre/postemergence soybean; assay type: in vivo, Glycine max
In short: as §1

sugar beet = experiment: Test B pre/postemergence sugar beet; assay type: in vivo, Beta vulgaris
In short: as §1

velvetleaf = experiment: Test B pre/postemergence velvetleaf; assay type: in vivo, Abutilon theophrasti
In short: as §1

wild oat = experiment: Test B pre/postemergence wild oat; assay type: in vivo, Avena fatua
In short: as §1

purple nutsedge = experiment: Test B pre/postemergence purple nutsedge; assay type: in vivo, Cyperus rotundus
In short: as §1

smallflower flatsedge = experiment: Test B flood test smallflower flatsedge; assay type: in vivo, Cyperus difformis
In short: (§2)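 Flood test on plants grown to the 2-leaf stage; treated plants kept in greenhouse twelve to sixteen days, then visually rated against controls on a 0 (no effect) to 10 (complete control) scale.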

bamyardgrass = experiment: Test B flood test barnyardgrass; assay type: in vivo, Echinochloa crus-galli
In short: as §2

[1] = Preemergence, Rate 62 g/ha, scale of 0 to 10 where 0 is no effect and 10 is complete control
[2] = Preemergence, Rate 250 g/ha, scale 0 to 10, 0 is no effect, 10 is complete control
[3] = Preemergence, Rate 500 g/ha, scale of 0 to 10 where 0 is no effect and 10 is complete control
[4] = Rate 62 g/ha, Postemergence, scale of 0 to 10 where 0 is no effect and 10 is complete control
[5] = Rate 125 g/ha, Postemergence, scale 0 to 10
[6] = Rate 125 g/ha, Preemergence, scale of 0 to 10 where 0 is no effect and 10 is complete control
[7] = Rate 500 g/ha, Postemergence, scale 0 to 10
[8] = Rate 62 g/ha, headed Pre-emergence (flood test species), scale 0 to 10 (0 no effect, 10 complete control)
[9] = Rate 125 g/ha, Pre-emergence, flood test species, scale 0 to 10 where 0 is no effect and 10 is complete control
[10] = Rate 250 g/ha, Pre-emergence, flood-test species, scale 0 to 10, 0 is no effect, 10 is complete control
[11] = Rate 500 g/ha, Pre-emergence, flood test species, scale 0 to 10 (0 no effect, 10 complete control)

CC(C)N(C(=O)n1oc(=O)n(CC=Cc2ccccc2)c1=O)c1ccc(F)cc1 [Compound 210]
Blackgrass plant response rating (blackgrass; [1]): 0
Blackgrass plant response rating (blackgrass; [2]): 0
Plant response rating, Blackgrass (blackgrass; [3]): 4
Blackgrass plant response rating (blackgrass; [4]): 0
Blackgrass plant response rating (blackgrass; [5]): 0
Blackgrass plant response rating (blackgrass; [6]): 0
Plant response rating (0 to 10; 0 is no effect, 10 is complete control), Blackgrass (blackgrass; Rate 250 g/ha, Postemergence): 0
Blackgrass plant response rating (blackgrass; [7]): 2
B. signalgrass plant response rating (surinam grass; [1]): 0
B. signalgrass plant response rating (surinam grass; [2]): 0
Plant response rating, B. signalgrass (surinam grass; [3]): 0
B. signalgrass plant response rating (surinam grass; [4]): 0
B. signalgrass plant response rating (surinam grass; Rate 125 g/ha, Postemergence, scale 0 (no effect) to 10 (complete control)): 0
B. signalgrass plant response rating (surinam grass; [6]): 0
Plant response rating (0 to 10; 0 is no effect, 10 is complete control), B. signalgrass (surinam grass; Rate 250 g/ha, Postemergence): 0
B. signalgrass plant response rating (surinam grass; Rate 500 g/ha, Postemergence, scale 0 to 10, 0 no effect, 10 complete control): 0
Cocklebur plant response rating (cocklebur; [1]): 0
Cocklebur plant response rating (cocklebur; [2]): 0
Plant response rating, Cocklebur (cocklebur; [3]): 0
Cocklebur plant response rating (cocklebur; [4]): 0
Cocklebur plant response rating (cocklebur; [5]): 0
Cocklebur plant response rating (cocklebur; [6]): 0
Plant response rating (0 to 10; 0 is no effect, 10 is complete control), Cocklebur (cocklebur; Rate 250 g/ha, Postemergence): 0
Cocklebur plant response rating (cocklebur; [7]): 2
Corn plant response rating (corn; [1]): 0
Corn plant response rating (corn; [2]): 0
Plant response rating, Corn (corn; [3]): 0
Corn plant response rating (corn; [4]): 0
Corn plant response rating (corn; [5]): 0
Corn plant response rating (corn; [6]): 0
Plant response rating (0 to 10; 0 is no effect, 10 is complete control), Corn (corn; Rate 250 g/ha, Postemergence): 0
Corn plant response rating (corn; [7]): 0
Crabgrass plant response rating (crabgrass; [1]): 0
Crabgrass plant response rating (crabgrass; [2]): 3
Plant response rating, Crabgrass (crabgrass; [3]): 8
Crabgrass plant response rating (crabgrass; [4]): 0
Crabgrass plant response rating (crabgrass; [5]): 0
Crabgrass plant response rating (crabgrass; [6]): 0
Plant response rating (0 to 10; 0 is no effect, 10 is complete control), Crabgrass (crabgrass; Rate 250 g/ha, Postemergence): 0
Crabgrass plant response rating (crabgrass; [7]): 0
Giant foxtail plant response rating (giant foxtail; [1]): 0
Giant foxtail plant response rating (giant foxtail; [2]): 3
Plant response rating, Giant foxtail (giant foxtail; [3]): 5
Giant foxtail plant response rating (giant foxtail; [4]): 0
Giant foxtail plant response rating (giant foxtail; [5]): 0
Giant foxtail plant response rating (giant foxtail; [6]): 0
Plant response rating (0 to 10; 0 is no effect, 10 is complete control), Giant foxtail (giant foxtail; Rate 250 g/ha, Postemergence): 0
Giant foxtail plant response rating (giant foxtail; [7]): 0
Morningglory plant response rating (morningglory; [1]): 0
Morningglory plant response rating (morningglory; [2]): 0
Plant response rating, Morningglory (morningglory; [3]): 0
Morningglory plant response rating (morningglory; [4]): 2
Morningglory plant response rating (morningglory; [5]): 2
Morningglory plant response rating (morningglory; [6]): 0
Plant response rating (0 to 10; 0 is no effect, 10 is complete control), Morningglory (morningglory; Rate 250 g/ha, Postemergence): 3
Morningglory plant response rating (morningglory; [7]): 7
Redroot pigweed plant response rating (pigweed; [1]): 0
Redroot pigweed plant response rating (pigweed; [2]): 2
Plant response rating, Redroot pigweed (pigweed; [3]): 8
Redroot pigweed plant response rating (pigweed; [4]): 0
Redroot pigweed plant response rating (pigweed; [5]): 0
Redroot pigweed plant response rating (pigweed; [6]): 0
Plant response rating (0 to 10; 0 is no effect, 10 is complete control), Redroot pigweed (pigweed; Rate 250 g/ha, Postemergence): 2
Redroot pigweed plant response rating (pigweed; [7]): 6
Rape plant response rating (rape; [1]): 0
Rape plant response rating (rape; [2]): 0
Plant response rating, Rape (rape; [3]): 3
Rape plant response rating (rape; [4]): 0
Rape plant response rating (rape; [5]): 0
Rape plant response rating (rape; [6]): 0
Plant response rating (0 to 10; 0 is no effect, 10 is complete control), Rape (rape; Rate 250 g/ha, Postemergence): 0
Rape plant response rating (rape; [7]): 0
Soybean plant response rating (soybean; [1]): 0
Soybean plant response rating (soybean; [2]): 0
Plant response rating, Soybean (soybean; [3]): 0
Soybean plant response rating (soybean; [4]): 1
Soybean plant response rating (soybean; [5]): 1
Soybean plant response rating (soybean; [6]): 0
Plant response rating (0 to 10; 0 is no effect, 10 is complete control), Soybean (soybean; Rate 250 g/ha, Postemergence): 1
Soybean plant response rating (soybean; [7]): 3
Sugarbeets plant response rating (sugar beet; [1]): 0
Sugarbeets plant response rating (sugar beet; [2]): 0
Plant response rating, Sugarbeets (sugar beet; [3]): 3
Sugarbeets plant response rating (sugar beet; [4]): 0
Sugarbeets plant response rating (sugar beet; [5]): 0
Sugarbeets plant response rating (sugar beet; [6]): 0
Plant response rating (0 to 10; 0 is no effect, 10 is complete control), Sugarbeets (sugar beet; Rate 250 g/ha, Postemergence): 0
Sugarbeets plant response rating (sugar beet; [7]): 4
Velvetleaf plant response rating (velvetleaf; [1]): 0
Velvetleaf plant response rating (velvetleaf; [2]): 0
Plant response rating, Velvetleaf (velvetleaf; [3]): 0
Velvetleaf plant response rating (velvetleaf; [4]): 0
Velvetleaf plant response rating (velvetleaf; [5]): 0
Velvetleaf plant response rating (velvetleaf; [6]): 0
Plant response rating (0 to 10; 0 is no effect, 10 is complete control), Velvetleaf (velvetleaf; Rate 250 g/ha, Postemergence): 2
Wild oats plant response rating (wild oat; [1]): 0
Wild oats plant response rating (wild oat; [2]): 2
Plant response rating, Wild oats (wild oat; [3]): 2
Wild oats plant response rating (wild oat; [4]): 0
Wild oats plant response rating (wild oat; [5]): 0
Wild oats plant response rating (wild oat; [6]): 0
Plant response rating (0 to 10; 0 is no effect, 10 is complete control), Wild oats (wild oat; Rate 250 g/ha, Postemergence): 0
Nutsedge plant response rating (purple nutsedge; [1]): 0
Nutsedge plant response rating (purple nutsedge; [2]): 0
Plant response rating, Nutsedge (purple nutsedge; [3]): 0
Nutsedge plant response rating (purple nutsedge; [4]): 0
Nutsedge plant response rating (purple nutsedge; [5]): 0
Nutsedge plant response rating (purple nutsedge; [6]): 0
Plant response rating (0 to 10; 0 is no effect, 10 is complete control), Nutsedge (purple nutsedge; Rate 250 g/ha, Postemergence): 0
Nutsedge plant response rating (purple nutsedge; [7]): 0
S. Flatsedge plant response rating (smallflower flatsedge; [8]): 0
S. Flatsedge plant response rating (smallflower flatsedge; [9]): 0
S. Flatsedge plant response rating (smallflower flatsedge; [10]): 0
S. Flatsedge plant response rating (smallflower flatsedge; [11]): 0
Barnyardgrass plant response rating (bamyardgrass; [8]): 0
Barnyardgrass plant response rating (bamyardgrass; [9]): 0
Barnyardgrass plant response rating (bamyardgrass; [10]): 0
Barnyardgrass plant response rating (bamyardgrass; [11]): 0
